“And” between values parts separate entries of the source, which are not always exact repeats. Identical values can stand only once.
Experiments:
[1] = test system: T. brucei TREU 667/1; assay: Early (3 day old) T. brucei TREU 667/1 infection in mice, cure after i.p. treatment; format: in vivo, Trypanosoma brucei; conditions: for Number Cured Out of Total Treated: CFLP mice infected for 3 days
Source text: The mice used were adult CFLP females approximately 25-30 g. and maintained on standard laboratory diet throughout the experiments. Two stabilates were used throughout the experiments, the main one was T. brucei TREU 667/1 originally obtained from Dr. A. R. Gray, Edinburgh, and the other T. brucei LUMP 1001 obtained from Professor […], London. These were cryogenically maintained as previously described in Jennings, […], Parasitol. 75, 143-153 (1977). Each mouse was inoculated intraperitoneally with 1 x 10^4 trypanosomes prepared from the stabilate in phosphate glucose saline pH 8.0. Chemotherapy commenced at various times post inoculation. Each mouse was weighed and the requisite dose of drug administered intraperitoneally in a volume of 0.1 ml./5g. body weight. Compounds I, II and III were used in crystalline powder forms. These were first ground finely in an agate mortar and then suspended in physiological saline for intraperitoneal injection. A drop of detergent (Tween 80) was added to the suspensions to facilitate wetting. Care was taken during dispensing that the suspensions were properly dispersed, and because of some slight unavoidable settlement in the syringe, the mice were always injected at random and usually not more than 3 mice were injected from the one syringe full of drug suspension. As the regimen was usually 4 daily doses at the respective drug concentration, any errors were evenly distributed. […] All were prepared according to the manufacturer's instructions and were injected intraperitoneally. The mice were examined for parasites on the day treatment was initiated (usually day 3 or 21 of infection) by examination of a drop of tail blood under x40 objective (wet film technique). […] The three compounds, I, II and III were used at various dose levels against an early infection of T. brucei TREU 667/1 in CFLP. The dose regimen was initiated 3 days after infection and the intraperitoneal injections of drug suspension were given daily.

[2] = test system: T. brucei LUMP 1001; assay: Chronic (21 day old) T. brucei LUMP 1001 infection in mice, cure/relapse after i.p. treatment; format: in vivo, Trypanosoma brucei
Source text: The mice used were adult CFLP females approximately 25-30 g. and maintained on standard laboratory diet throughout the experiments. Two stabilates were used throughout the experiments, the main one was T. brucei TREU 667/1 originally obtained from Dr. A. R. Gray, Edinburgh, and the other T. brucei LUMP 1001 obtained from Professor […], London. These were cryogenically maintained as previously described in Jennings, […], Parasitol. 75, 143-153 (1977). Each mouse was inoculated intraperitoneally with 1 x 10^4 trypanosomes prepared from the stabilate in phosphate glucose saline pH 8.0. Chemotherapy commenced at various times post inoculation. Each mouse was weighed and the requisite dose of drug administered intraperitoneally in a volume of 0.1 ml./5g. body weight. Compounds I, II and III were used in crystalline powder forms. These were first ground finely in an agate mortar and then suspended in physiological saline for intraperitoneal injection. A drop of detergent (Tween 80) was added to the suspensions to facilitate wetting. Care was taken during dispensing that the suspensions were properly dispersed, and because of some slight unavoidable settlement in the syringe, the mice were always injected at random and usually not more than 3 mice were injected from the one syringe full of drug suspension. As the regimen was usually 4 daily doses at the respective drug concentration, any errors were evenly distributed. […] All were prepared according to the manufacturer's instructions and were injected intraperitoneally. The mice were examined for parasites on the day treatment was initiated (usually day 3 or 21 of infection) by examination of a drop of tail blood under x40 objective (wet film technique). […] It was known that T. brucei LUMP 1001 relapsed after treatment of a 21 day old infection Jennings, […], Parasitol. 75, 143-153 (1977), and indeed tended to relapse earlier after treatment with Berenil at 40 mg./kg. than any of the other stabilates tested (approximately 20 days). The original experiment using 40 mg./kg. Berenil as pre-treatment followed by Compound III was disappointing, as only 3 out of a total of 27 mice appeared to be cured by the various dose regimens. The experiment was therefore repeated increasing the pretreatment dose of Berenil to 60 mg./kg. and 80 mg./kg., the latter being given as two doses of 40 mg./kg. on consecutive days to avoid the possibility of deaths due to the toxicity of Berenil at that dose level in mice. This pretreatment was followed by administration of Compound III at 4 doses of 80 mg./kg. and in both instances where the increased Berenil dose level (60 mg./kg. and 80 mg./kg.) was used, satisfactory permanent cures were accomplished, whereas in the respective controls all of the mice relapsed.

[3] = test system: T. brucei LUMP 1001; conditions: 21 day old infection; Berenil at 40 mg./kg.; cited from earlier work
[4] = test system: T. brucei TREU 667/1; assay: Chronic (21 day old) T. brucei TREU 667/1 infection in mice, cure/relapse after i.p. treatment; format: in vivo, Trypanosoma brucei; conditions: for Number Cured Out of Total Treated: mice infected for 21 days; for time after treatment until signs of relapse: some of the mice treated with the prophylactic drugs (pretreatment experiments of Table 3)
Source text: The mice used were adult CFLP females approximately 25-30 g. and maintained on standard laboratory diet throughout the experiments.
Two stabilates were used throughout the experiments, the main one was T. brucei TREU 667/1 originally obtained from Dr. A. R. Gray, Edinburgh, and the other T. brucei LUMP 1001 obtained from Professor W. H. R. Lumsden, London. These were cryogenically maintained as previously described in Jennings, Whitelaw & Urquhart, Parasitol. 75, 143-153 (1977).
Each mouse was inoculated intraperitoneally with 1 x 10^4 trypanosomes prepared from the stabilate in phosphate glucose saline pH 8.0. Chemotherapy commenced at various times post inoculation. Each mouse was weighed and the requisite dose of drug administered intraperitoneally in a volume of 0.1 ml./5g. body weight.
Compounds I, II and III were used in crystalline powder forms. These were first ground finely in an agate mortar and then suspended in physiological saline for intraperitoneal injection. A drop of detergent (Tween 80) was added to the suspensions to facilitate wetting. Care was taken during dispensing that the suspensions were properly dispersed, and because of some slight unavoidable settlement in the syringe, the mice were always injected at random and usually not more than 3 mice were injected from the one syringe full of drug suspension. As the regimen was usually 4 daily doses at the respective drug concentration, any errors were evenly distributed.
The other established drugs used were Berenil (diminazene aceturate, obtained from Fabwerke, Hoechst, Germany, 40 mg./kg. unless otherwise specified), Ethidium (homidium bromide 7.5 mg./kg.) and Prothidium (pyrithidium bromide 10 mg./kg. obtained from Boots Pure Drug Co., England) and Samorin (isometamidium 2 mg./kg. obtained from May & Baker Ltd.). […]
The mice were examined for parasites on the day treatment was initiated (usually day 3 or 21 of infection) by examination of a drop of tail blood under x40 objective (wet film technique). Subsequent to treatment they were examined every 2 days for 6 days and thereafter once per week until relapse occurred or until the experiment was terminated (in some instances 6-7 months).
The initial work with Berenil was carried out using the dose rate of 40 mg./kg. which was the dose of drug used in all the original work on chronic infections.
In addition, groups of mice were given Berenil and the Compound III simultaneously, or one injection of Berenil followed by one injection of Compound III in order to compress the treatment into the minimum number of injections.

[5] = Berenil 40 mg./kg. day 21, no further treatment
[6] = 4 x 5 mg./kg. daily i.p., cure = no parasites in blood for at least 90 days
[7] = 4 x 20 mg./kg. daily i.p., cure = no parasites in blood for at least 90 days
[8] = single drug 4 x 20 mg./kg. daily i.p.

**Q.** Which results are given for N=C(N)c1ccc(N=NNc2ccc(C(=N)N)cc2)cc1 [Berenil, diminazene aceturate]?
**A.** permanent cure of early infections ([1]; early infection, Berenil 5 mg./kg.): can be permanently cured; No. Cured Out of Total Treated [2, 5]: 0/10 and 0/9; No. Cured Out of Total Treated ([2]; Berenil 60 mg./kg. day 21, no further treatment): 0/8; No. Cured Out of Total Treated ([2]; Berenil 80 mg./kg., given as 2 x 40 mg./kg. on day 21 and day 24, no further treatment): 0/8; time to relapse after treatment [3]: approximately 20 days; time for which all circulating trypanosomes are cleared from the bloodstream ([4]; 5 mg./kg. Berenil): up to 20 days; outcome after treatment ([4]; 21 day old infection, 160 mg./kg. Berenil given subcutaneously): relapsed; No. Cured Out of Total Treated ([4]; Berenil 5 mg./kg. day 21, no further treatment): 0/10; No. Cured Out of Total Treated ([4]; Berenil 5 mg./kg. day 21, then Berenil 5 mg./kg. day 24): 0/10; No. Cured Out of Total Treated ([4]; Berenil 20 mg./kg. day 21, no further treatment): 0/10; No. Cured Out of Total Treated [4, 5]: 1/10 and 1/9; cure rate ([4]; Berenil (40 mg./kg.) given alone, in the particular experiment with the simultaneous group): 60%; outcome after repeated treatment ([4]; infected 21 days, Berenil alone 40 mg./kg., retreated every 30 days for a total of 5 months, a proportion of mice): eventually become parasitaemic again

**Q.** With Cn1c([N+](=O)[O-])cnc1COC(N)=O [Compound I, 1-methyl-5-nitroimidazol-2-ylmethylcarbamate] as the compound, how does the “Number Cured Out of Total Treated” value [1, 6] read?
**A.** 0/8

**Q.** What about the “Number Cured Out of Total Treated” value [1, 7] of the same compound?
**A.** 0/8

**Q.** For Cn1c([N+](=O)[O-])cnc1C1=NOC2CCCCC12 (stereo not drawn) [Compound II, 3'-(1-methyl-5-nitroimidazol-2-yl)-4'5'-tetramethylene-Δ^2-isoxazoline], which cure rate ([1]; 3-day old infection, 4 doses of 80 mg./kg.) is on record?
**A.** 100%

**Q.** What about the “Number Cured Out of Total Treated” value [1, 6] of the same compound?
**A.** 0/8

**Q.** And the “Number Cured Out of Total Treated” value [1, 7]?
**A.** 2/8

**Q.** What about the “Number Cured Out of Total Treated” value ([1]; 4 x 80 mg./kg. daily i.p., separate experiment) of the same compound?
**A.** 10/10

**Q.** What about the “Number Cured Out of Total Treated” value [4, 8] of the same compound?
**A.** 0/9

**Q.** Which results are given for Cn1c([N+](=O)[O-])cnc1C1=NOC2CCCCCCC12 (stereo not drawn) [Compound III]?
**A.** cure ([1]; 3-day old infection, 4 doses at 20 mg./kg.): 100%; Number Cured Out of Total Treated [1, 6]: 2/8; Number Cured Out of Total Treated [1, 7]: 8/8; No. Cured Out of Total Treated ([2]; no pretreatment, III 4 x 80 mg./kg. commencing day 24): 0/10; period after treatment until the last of the mice relapsed ([4]; established (21 day) infection, 4 doses at 80 mg./kg.): 42 days; Number Cured Out of Total Treated [4, 8]: 0/9 and 0/10 and 0/8; Number Cured Out of Total Treated ([4]; single drug 4 x 80 mg./kg. daily i.p.): 0/10; No. Cured Out of Total Treated ([4]; no pretreatment, III 4 x 20 mg./kg. commencing day 24): 0/8

**Q.** Which “No. Cured Out of Total Treated” value ([4]; Ethidium 7.5 mg./kg. day 21, no further treatment) does the source give for CC[n+]1c(-c2ccccc2)c2cc(N)ccc2c2ccc(N)cc21 [Ethidium, homidium bromide] here?
**A.** 0/10

**Q.** For Cc1cc(Nc2ccc3c(c2)c(-c2ccc(N)cc2)[n+](C)c2cc(N)ccc32)nc(N)[n+]1C.[Br-].[Br-] [Prothidium, pyrithidium bromide], which “No. Cured Out of Total Treated” value ([4]; Prothidium 10.0 mg./kg. day 21, no further treatment) is on record?
**A.** 0/8

**Q.** What about the “time after treatment until signs of relapse” value [4] of the same compound?
**A.** 6-7 months

**Q.** With CC[n+]1c(-c2ccccc2)c2cc(N/N=N/c3cccc(C(=N)N)c3)ccc2c2ccc(N)cc21 [Samorin, isometamidium] as the compound, how does the “No. Cured Out of Total Treated” value ([4]; Samorin 2.0 mg./kg. day 21, no further treatment) read?
**A.** 0/10

**Q.** What about the “time after treatment until signs of relapse” value [4] of the same compound?
**A.** 6-7 months

From patent publication EP0006752A1, “Compositions for the treatment of chronic trypanosomiasis infections” (Merck & Co., Inc., priority 1978, dated 1980)
